US7498349B2, “Biaryl compounds having anti-infective activity” (Genesoft Pharmaceuticals, Inc., priority 2002, dated 2009)
≈ marks a conversion by molar mass, not a printed value.

Columns and labels:
B. cereus ATCC 11778 = assay: MIC, NCCLS broth microdilution assay; format: cell-based, Bacillus cereus; details: for Minimum Inhibitory Concentration (MIC): B. cereus ATCC 11778
C. albicans ATCC 38247 = assay: MIC, antifungal assay; format: cell-based, Candida albicans; details: for Minimum Inhibitory Concentration (MIC): C. albicans ATCC 38247
From the text: In vitro biological activity data were collected for a variety of microorganisms, including Bacillus cereus (ATCC 11778), Staphylococcus aureus (ATCC 33591; ATCC 27660, a methicillin resistant strain (MRSA); ATCC 13709, a methicillin sensitive strain (MSSA)), Escherichia coli (ATCC 25922), Enterococcus faecalis (ATCC 29212), Streptococcus pneumoniae (ATCC 49619; ATCC 51422, a penicillin resistant strain (PRSP)), Enterococcus faecium (ATCC 51559, a vancomycin resistant strain (VRE)), and Staphylococcus epidermidis (ATCC 12228). Additionally, antifungal activity data were collected for Candida albicans (ATCC 38247).
The minimal inhibition concentration (MIC) of these compounds was determined using the National Committee for Clinical Laboratory Standards (NCCLS) broth microdilution assay in microtiter plates, as set forth in: (1) the guidelines of the National Committee for Clinical Laboratory Standards (NCCLS) Document M7-A4 (NCCLS, 1997); (2) the guidelines of the National Committee for Clinical Laboratory Standards (NCCLS) Document M11-A4 (NCCLS, 1997); and (3) the guidelines and reference method of the National Committee for Clinical Laboratory Standards (NCCLS) Document M27 -T (NCCLS, 1995). For antifungal assays, the method recommended in Murray, PR., 1995 Manual of Clinical Microbiology (ASM Press, Washington, D.C.), was employed.

E. faecalis ATCC 29212 = assay: MIC, NCCLS broth microdilution assay; format: cell-based, Enterococcus faecalis; details: for Minimum Inhibitory Concentration (MIC): E. faecalis ATCC 29212
S. aureus ATCC 13709 = assay: MIC, NCCLS broth microdilution assay; format: cell-based, Staphylococcus aureus; details: for Minimum Inhibitory Concentration (MIC): S. aureus ATCC 13709, methicillin sensitive strain (MSSA)
From the text: In vitro biological activity data were collected for a variety of microorganisms, including Bacillus cereus (ATCC 11778), Staphylococcus aureus (ATCC 33591; ATCC 27660, a methicillin resistant strain (MRSA); ATCC 13709, a methicillin sensitive strain (MSSA)), Escherichia coli (ATCC 25922), Enterococcus faecalis (ATCC 29212), Streptococcus pneumoniae (ATCC 49619; ATCC 51422, a penicillin resistant strain (PRSP)), Enterococcus faecium (ATCC 51559, a vancomycin resistant strain (VRE)), and Staphylococcus epidermidis (ATCC 12228).
The minimal inhibition concentration (MIC) of these compounds was determined using the National Committee for Clinical Laboratory Standards (NCCLS) broth microdilution assay in microtiter plates, as set forth in: (1) the guidelines of the National Committee for Clinical Laboratory Standards (NCCLS) Document M7-A4 (NCCLS, 1997); (2) the guidelines of the National Committee for Clinical Laboratory Standards (NCCLS) Document M11-A4 (NCCLS, 1997); and (3) the guidelines and reference method of the National Committee for Clinical Laboratory Standards (NCCLS) Document M27 -T (NCCLS, 1995).

S. aureus ATCC 27660 = assay: MIC, NCCLS broth microdilution assay; format: cell-based, Staphylococcus aureus; details: for Minimum Inhibitory Concentration (MIC): S. aureus ATCC 27660, methicillin resistant strain (MRSA)
S. aureus ATCC 33591 = assay: MIC, NCCLS broth microdilution assay; format: cell-based, Staphylococcus aureus; details: for Minimum Inhibitory Concentration (MIC): S. aureus ATCC 33591
S. pneumoniae ATCC 49619 = assay: MIC, NCCLS broth microdilution assay; format: cell-based, Streptococcus pneumoniae; details: for Minimum Inhibitory Concentration (MIC): S. pneumoniae ATCC 49619
E. coli ATCC 25922 = assay: MIC, NCCLS broth microdilution assay; format: cell-based, Escherichia coli; details: for Minimum Inhibitory Concentration (MIC): E. coli ATCC 25922

Cc1ccc2nc(-c3ccc(NC(=O)c4nsc(NCCCN(C)C)c4Cl)cc3)sc2c1 [Compound A-54]
Minimum Inhibitory Concentration (MIC) (B. cereus ATCC 11778): +++ (MIC ≦ 4)
Minimum Inhibitory Concentration (MIC) (C. albicans ATCC 38247): +++ (MIC ≦ 4)
Minimum Inhibitory Concentration (MIC) (E. faecalis ATCC 29212): +++ (MIC ≦ 4)
Minimum Inhibitory Concentration (MIC) (S. aureus ATCC 13709): +++ (MIC ≦ 4)
Minimum Inhibitory Concentration (MIC) (S. aureus ATCC 27660): +++ (MIC ≦ 4)
Minimum Inhibitory Concentration (MIC) (S. aureus ATCC 33591): +++ (MIC ≦ 4)
Minimum Inhibitory Concentration (MIC) (S. pneumoniae ATCC 49619): + (12 ≦ MIC ≦ 32)
Minimum Inhibitory Concentration (MIC) (E. coli ATCC 25922): >32 µg/mL

O=C(Nc1ccc(-c2cc3ccccc3s2)nc1)c1cccnc1NCCN1CCCCC1 [Compound A-72]
Minimum Inhibitory Concentration (MIC) (B. cereus ATCC 11778): >32 µg/mL
Minimum Inhibitory Concentration (MIC) (C. albicans ATCC 38247): >32 µg/mL
Minimum Inhibitory Concentration (MIC) (E. faecalis ATCC 29212): >32 µg/mL
Minimum Inhibitory Concentration (MIC) (S. aureus ATCC 13709): >32 µg/mL
Minimum Inhibitory Concentration (MIC) (S. aureus ATCC 27660): >32 µg/mL
Minimum Inhibitory Concentration (MIC) (S. aureus ATCC 33591): >32 µg/mL
Minimum Inhibitory Concentration (MIC) (S. pneumoniae ATCC 49619): >32 µg/mL
Minimum Inhibitory Concentration (MIC) (E. coli ATCC 25922): >32 µg/mL

O=C(Nc1ccc(-c2cc3ccccc3s2)nc1)c1cccnc1NCCN1CCNCC1 [Compound A-73]
Minimum Inhibitory Concentration (MIC) (B. cereus ATCC 11778): >32 µg/mL
Minimum Inhibitory Concentration (MIC) (C. albicans ATCC 38247): >32 µg/mL
Minimum Inhibitory Concentration (MIC) (E. faecalis ATCC 29212): >32 µg/mL
Minimum Inhibitory Concentration (MIC) (S. aureus ATCC 13709): >32 µg/mL
Minimum Inhibitory Concentration (MIC) (S. aureus ATCC 27660): >32 µg/mL
Minimum Inhibitory Concentration (MIC) (S. aureus ATCC 33591): >32 µg/mL
Minimum Inhibitory Concentration (MIC) (S. pneumoniae ATCC 49619): >32 µg/mL
Minimum Inhibitory Concentration (MIC) (E. coli ATCC 25922): >32 µg/mL

O=C(Nc1ccc(-c2cc3ccccc3o2)nc1)c1ccc(Cl)cc1NCCN1CCCC1 [Compound A-43]
Minimum Inhibitory Concentration (MIC) (B. cereus ATCC 11778): ++ (4 < MIC < 12)
Minimum Inhibitory Concentration (MIC) (C. albicans ATCC 38247): >32 µg/mL
Minimum Inhibitory Concentration (MIC) (E. faecalis ATCC 29212): ++ (4 < MIC < 12)
Minimum Inhibitory Concentration (MIC) (S. aureus ATCC 13709): ++ (4 < MIC < 12)
Minimum Inhibitory Concentration (MIC) (S. aureus ATCC 27660): ++ (4 < MIC < 12)
Minimum Inhibitory Concentration (MIC) (S. aureus ATCC 33591): ++ (4 < MIC < 12)
Minimum Inhibitory Concentration (MIC) (S. pneumoniae ATCC 49619): + (12 ≦ MIC ≦ 32)
Minimum Inhibitory Concentration (MIC) (E. coli ATCC 25922): >32 µg/mL

O=C(Nc1ccc(-c2cc3ccccc3o2)cc1)c1ccc(Cl)cc1NCCN1CCNCC1 [Compound A-26]
Minimum Inhibitory Concentration (MIC) (B. cereus ATCC 11778): + (12 ≦ MIC ≦ 32)
Minimum Inhibitory Concentration (MIC) (C. albicans ATCC 38247): >32 µg/mL
Minimum Inhibitory Concentration (MIC) (E. faecalis ATCC 29212): ++ (4 < MIC < 12)
Minimum Inhibitory Concentration (MIC) (S. aureus ATCC 13709): +++ (MIC ≦ 4)
Minimum Inhibitory Concentration (MIC) (S. aureus ATCC 27660): ++ (4 < MIC < 12)
Minimum Inhibitory Concentration (MIC) (S. aureus ATCC 33591): ++ (4 < MIC < 12)
Minimum Inhibitory Concentration (MIC) (S. pneumoniae ATCC 49619): + (12 ≦ MIC ≦ 32)
Minimum Inhibitory Concentration (MIC) (E. coli ATCC 25922): >32 µg/mL

NCCNc1cc(Cl)ccc1C(=O)Nc1ccc(-c2cc3ccccc3o2)nc1 [Compound A-45]
MIC (B. cereus ATCC 11778; Bacillus cereus, ATCC11778, read-out: Minimum Inhibitory Concentration (MIC)): 4 to 12 µg/mL (≈ 9.83 to 29.5 µM)
MIC (C. albicans ATCC 38247; Candida albicans, ATCC38247, read-out: Minimum Inhibitory Concentration (MIC)): 4 to 12 µg/mL (≈ 9.83 to 29.5 µM)
MIC (E. faecalis ATCC 29212; Enterococcus faecalis, ATCC29212, read-out: Minimum Inhibitory Concentration (MIC)): 4 to 12 µg/mL (≈ 9.83 to 29.5 µM)
MIC (S. aureus ATCC 13709; Staphylococcus aureus, ATCC 13709 / MSSA, read-out: Minimum Inhibitory Concentration (MIC)): < 4 µg/mL
MIC (S. aureus ATCC 27660; Staphylococcus aureus, ATCC 27660 / MRSA, read-out: Minimum Inhibitory Concentration (MIC)): < 4 µg/mL
MIC (S. aureus ATCC 33591; Staphylococcus aureus, ATCC33591, read-out: Minimum Inhibitory Concentration (MIC)): < 4 µg/mL
MIC (S. pneumoniae ATCC 49619; Streptococcus pneumoniae, ATCC49619, read-out: Minimum Inhibitory Concentration (MIC)): 12 to 32 µg/mL (≈ 29.5 to 78.6 µM)
MIC (E. coli ATCC 25922; Escherichia coli, ATCC25922, read-out: Minimum Inhibitory Concentration (MIC)): > 32 µg/mL

NCCNc1snc(C(=O)Nc2ccc(-c3cc4ccccc4[nH]3)cc2)c1Cl [Compound A-56]
Minimum Inhibitory Concentration (MIC) (B. cereus ATCC 11778): >32 µg/mL
Minimum Inhibitory Concentration (MIC) (C. albicans ATCC 38247): + (12 ≦ MIC ≦ 32)
Minimum Inhibitory Concentration (MIC) (E. faecalis ATCC 29212): + (12 ≦ MIC ≦ 32)
Minimum Inhibitory Concentration (MIC) (S. aureus ATCC 13709): ++ (4 < MIC < 12)
Minimum Inhibitory Concentration (MIC) (S. aureus ATCC 27660): ++ (4 < MIC < 12)
Minimum Inhibitory Concentration (MIC) (S. aureus ATCC 33591): ++ (4 < MIC < 12)
Minimum Inhibitory Concentration (MIC) (S. pneumoniae ATCC 49619): >32 µg/mL
Minimum Inhibitory Concentration (MIC) (E. coli ATCC 25922): >32 µg/mL

O=C(Nc1ccc(-c2cc3ccccc3[nH]2)cc1)c1cccnc1NCCN1CCOCC1 [Compound A-66]
Minimum Inhibitory Concentration (MIC) (B. cereus ATCC 11778): >32 µg/mL
Minimum Inhibitory Concentration (MIC) (C. albicans ATCC 38247): >32 µg/mL
Minimum Inhibitory Concentration (MIC) (E. faecalis ATCC 29212): >32 µg/mL
Minimum Inhibitory Concentration (MIC) (S. aureus ATCC 13709): >32 µg/mL
Minimum Inhibitory Concentration (MIC) (S. aureus ATCC 27660): >32 µg/mL
Minimum Inhibitory Concentration (MIC) (S. aureus ATCC 33591): >32 µg/mL
Minimum Inhibitory Concentration (MIC) (S. pneumoniae ATCC 49619): >32 µg/mL
Minimum Inhibitory Concentration (MIC) (E. coli ATCC 25922): >32 µg/mL

CN(C)CCCNc1cc(Cl)ccc1C(=O)Nc1ccc(-c2cc3ccccc3o2)nc1 [Compound A-44]
Minimum Inhibitory Concentration (MIC) (B. cereus ATCC 11778): ++ (4 < MIC < 12)
Minimum Inhibitory Concentration (MIC) (C. albicans ATCC 38247): ++ (4 < MIC < 12)
Minimum Inhibitory Concentration (MIC) (E. faecalis ATCC 29212): ++ (4 < MIC < 12)
Minimum Inhibitory Concentration (MIC) (S. aureus ATCC 13709): ++ (4 < MIC < 12)
Minimum Inhibitory Concentration (MIC) (S. aureus ATCC 27660): ++ (4 < MIC < 12)
Minimum Inhibitory Concentration (MIC) (S. aureus ATCC 33591): ++ (4 < MIC < 12)
Minimum Inhibitory Concentration (MIC) (S. pneumoniae ATCC 49619): + (12 ≦ MIC ≦ 32)
Minimum Inhibitory Concentration (MIC) (E. coli ATCC 25922): >32 µg/mL
